Results reported in patent US10457687B2, “Aminoacid derivatives, a process for their preparation and pharmaceutical compositions containing them” (LES LABORATOIRES SERVIER, priority 2015, dated 2019).

Tests used:
Mcl-1 protein = Mcl-1 protein (Homo sapiens, UniProt Q07820); test: Inhibition of Mcl-1 by the fluorescence polarisation technique (Method 1 or Method 2); format: binding; conditions: for IC50: fluorescence polarisation, Fluorescein labelled ligand, Method 1 (not underlined) or Method 2 (underlined), read-out: IC50 (μM) Mcl-1 FP
Mcl-1 protein, sequence (Q07820 whole entry): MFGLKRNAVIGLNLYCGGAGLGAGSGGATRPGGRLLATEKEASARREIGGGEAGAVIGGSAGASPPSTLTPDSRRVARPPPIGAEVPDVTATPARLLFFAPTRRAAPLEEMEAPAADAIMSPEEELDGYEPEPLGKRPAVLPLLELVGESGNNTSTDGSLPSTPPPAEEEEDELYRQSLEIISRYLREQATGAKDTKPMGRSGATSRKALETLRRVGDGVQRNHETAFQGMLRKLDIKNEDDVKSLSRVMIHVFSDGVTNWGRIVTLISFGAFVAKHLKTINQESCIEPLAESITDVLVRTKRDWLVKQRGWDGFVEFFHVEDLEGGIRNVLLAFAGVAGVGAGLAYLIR
Method in brief: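 Binding measured by FP, with Mcl-1 protein and fluorescein-labelled ligand mixed with compounds in an 11-point series at 5% final DMSO. Method 2 used 10 nM each of protein and ligand in phosphate buffer (20 mM Na2HPO4, 1 mM EDTA, 50 mM NaCl, pH 7.4); Method 1 used 5 nM protein, 1 nM ligand in HEPES buffer (10 mM HEPES, 150 mM NaCl, 0.05% Tween 20, pH 7.4).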

[1] = tested on: H929 multiple myeloma tumour line; test: In vitro cytotoxicity, MTT assay, 48 hours; format: cell-based; conditions: H929 cells, 48 hours exposure, cell viability
Experimental: The cytotoxicity studies were carried out on the H929 multiple myeloma tumour line.
The cells are distributed onto microplates and exposed to the test compounds for 48 hours.

[2] = partial inhibitors, @ 10 μM test compound

Row | SMILES | IC50 (Mcl-1 protein) [µM] | IC50 ([1]; Homo sapiens, NCI-H929) [µM] | percentage fluorescence polarisation inhibition, Mcl-1 FP (Mcl-1 protein; [2]) [% @ 10 μM] | IC50 [1] [µM] | also measured
1 | COc1ccccc1-c1nccc(COc2ccccc2C[C@@H](Nc2ncnc3sc(-c4ccc(F)cc4)c(-c4c(C)c(Cl)c(OCCN5CCN(C)CC5)c(Cl)c4C)c23)C(=O)O)n1 [Example 270, N-[5-{3,5-dichloro-2,6-dimethyl-4-[2-(4-methylpiperazin-1-yl)ethoxy]phenyl}-6-(4-fluorophenyl)thieno[2,3-d]pyrimidin-4-yl]-2-{[2-(2-methoxyphenyl)pyrimidin-4-yl]methoxy}-D-phenylalanine] | 0.055 | 0.522 | – | – | –
2 | COc1ccccc1CC(Nc1ncnc2sc(-c3ccc(F)cc3)c(-c3ccc(OCCN4CCN(C)CC4)c(Cl)c3C)c12)C(=O)O [Example 1, N-[(5Sa)-5-{3-chloro-2-methyl-4-[2-(4-methylpiperazin-1-yl)ethoxy]phenyl}-6-(4-fluorophenyl)thieno[2,3-d]pyrimidin-4-yl]-2-methoxy-D-phenylalanine] | 0.127 | > 0.6 | – | – | –
3 | CC#Cc1sc2ncnc(NC(Cc3ccccc3OCc3ccnc(OCC(F)(F)F)n3)C(=O)O)c2c1-c1ccc(OCCN(C)C)c(Cl)c1C [Example 48, N-[(5Sa)-5-{3-chloro-4-[2-(dimethylamino)ethoxy]-2-methylphenyl}-6-(prop-1-yn-1-yl)thieno[2,3-d]pyrimidin-4-yl]-2-{[2-(2,2,2-trifluoroethoxy)pyrimidin-4-yl]methoxy}-D-phenylalanine] | 0.007 | 0.0161 | – | – | –
4 | Cc1c(-c2c(-c3ccsc3)sc3ncnc(N[C@H](CC4CCCCC4)C(=O)O)c23)ccc(OCCN2CCN(C)CC2)c1Cl [Example 31, N-[(5Ra)-5-{3-chloro-2-methyl-4-[2-(4-methylpiperazin-1-yl)ethoxy]phenyl}-6-(thiophen-3-yl)thieno[2,3-d]pyrimidin-4-yl]-3-cyclohexyl-D-alanine] | – | – | 16.7 | > 3.75 | –
5 | CC#Cc1sc2ncnc(NC(Cc3ccccc3OCc3ccnc(N4CCOCC4)n3)C(=O)O)c2c1-c1ccc(OCCN(C)C)c(Cl)c1C [Example 47, N-[(5Sa)-5-{3-chloro-4-[2-(dimethylamino)ethoxy]-2-methylphenyl}-6-(prop-1-yn-1-yl)thieno[2,3-d]pyrimidin-4-yl]-2-{[2-(morpholin-4-yl)pyrimidin-4-yl]methoxy}-D-phenylalanine] | 0.008 | 0.0839 | – | – | –
6 | Cc1c(-c2c(-c3ccsc3)sc3ncnc(N[C@H](Cc4ccccn4)C(=O)O)c23)ccc(OCCN2CCN(C)CC2)c1Cl [Example 30, N-[(5Ra)-5-{3-chloro-2-methyl-4-[2-(4-methylpiperazin-1-yl)ethoxy]phenyl}-6-(thiophen-3-yl)thieno[2,3-d]pyrimidin-4-yl]-3-pyridin-2-yl-D-alanine] | – | – | 68.2 | > 3.75 | –
7 | CCOc1nccc(COc2ccccc2CC(Nc2ncnc3sc(-c4ccc(F)cc4)c(-c4ccc(OCCN5CCN(C)CC5)c(Cl)c4C)c23)C(=O)O)n1 [Example 4, N-[(5Sa)-5-{3-chloro-2-methyl-4-[2-(4-methylpiperazin-1-yl)ethoxy]phenyl}-6-(4-fluorophenyl)thieno[2,3-d]pyrimidin-4-yl]-2-[(2-ethoxypyrimidin-4-yl)methoxy]-D-phenylalanine] | 0.005 | 0.215 | – | – | –
8 | Cc1c(-c2c(-c3ccco3)sc3ncnc(NC(Cc4ccccc4OCc4ccccn4)C(=O)O)c23)ccc(OCCN2CCN(C)CC2)c1Cl [Example 12, N-[(5Sa)-5-{3-chloro-2-methyl-4-[2-(4-methylpiperazin-1-yl)ethoxy]phenyl}-6-(furan-2-yl)thieno[2,3-d]pyrimidin-4-yl]-2-(pyridin-2-ylmethoxy)-D-phenylalanine] | 0.014 | 0.647 | – | – | –
9 | CC#Cc1sc2ncnc(NC(Cc3ccccc3OCc3ccnn3CC(F)(F)F)C(=O)O)c2c1-c1ccc(OCCN2CCN(C)CC2)c(Cl)c1C [Example 42, N-[(5Sa)-5-{3-chloro-2-methyl-4-[2-(4-methylpiperazin-1-yl)ethoxy]phenyl}-6-(prop-1-yn-1-yl)thieno[2,3-d]pyrimidin-4-yl]-2-{[1-(2,2,2-trifluoroethyl)-1H-pyrazol-5-yl]methoxy}-D-phenylalanine] | 0.01 | 0.061 | – | – | –
10 | Cc1c(-c2c(-c3ccco3)sc3ncnc(N[C@H](Cc4ccccc4C(N)=O)C(=O)O)c23)ccc(OCCN2CCN(C)CC2)c1Cl [Example 11, 2-carbamoyl-N-[5-{3-chloro-2-methyl-4-[2-(4-methylpiperazin-1-yl)ethoxy]phenyl}-6-(furan-2-yl)thieno[2,3-d]pyrimidin-4-yl]-D-phenylalanine] | – | > 3.75 | – | – | inhibition at 10 µM (Mcl-1 protein; partial inhibitors, @ 10 μM test compound, read-out: percentage fluorescence polarisation inhibition, Mcl-1 FP): 35.5%
11 | Cc1c(-c2c(-c3ccc(F)o3)sc3ncnc(NC(Cc4ccccc4OCc4ccnc(OCC(F)(F)F)n4)C(=O)O)c23)ccc(OCCN2CCN(C)CC2)c1Cl [Example 26, N-[(5Sa)-5-{3-chloro-2-methyl-4-[2-(4-methylpiperazin-1-yl)ethoxy]phenyl}-6-(5-fluorofuran-2-yl)thieno[2,3-d]pyrimidin-4-yl]-2-{[2-(2,2,2-trifluoroethoxy)pyrimidin-4-yl]methoxy}-D-phenylalanine] | 0.012 | 0.00636 | – | – | –
12 | CC#Cc1sc2ncnc(NC(Cc3ccccc3OCc3ccnn3CC(F)(F)F)C(=O)O)c2c1-c1ccc(OCCN(C)C)c(Cl)c1C [Example 46, N-[(5Sa)-5-{3-chloro-4-[2-(dimethylamino)ethoxy]-2-methylphenyl}-6-(prop-1-yn-1-yl)thieno[2,3-d]pyrimidin-4-yl]-2-{[1-(2,2,2-trifluoroethyl)-1H-pyrazol-5-yl]methoxy}-D-phenylalanine] | 0.024 | 0.166 | – | – | –
13 | Cc1c(-c2c(-c3ccc(F)o3)sc3ncnc(N[C@H](Cc4ccccc4OCc4ccnc(OCC(F)(F)F)n4)C(=O)O)c23)ccc(OCCN2CCN(C)CC2)c1Cl [Example 25, N-[(5Ra)-5-{3-chloro-2-methyl-4-[2-(4-methylpiperazin-1-yl)ethoxy]phenyl}-6-(5-fluorofuran-2-yl)thieno[2,3-d]pyrimidin-4-yl]-2-{[2-(2,2,2-trifluoroethoxy)pyrimidin-4-yl]methoxy}-D-phenylalanine] | – | – | 55.5 | > 0.6 | –
14 | Cc1c(-c2c(-c3ccco3)sc3ncnc(N[C@H](Cc4ccccc4Cl)C(=O)O)c23)ccc(OCCN2CCN(C)CC2)c1Cl (single isomer, unassigned) [Example 10, 2-chloro-N-[5-{3-chloro-2-methyl-4-[2-(4-methylpiperazin-1-yl)ethoxy]phenyl}-6-(furan-2-yl)thieno[2,3-d]pyrimidin-4-yl]-D-phenylalanine] | – | > 3.75 | – | – | inhibition at 3.3 µM (Mcl-1 protein; partial inhibitors, @ 3.3 μM test compound, read-out: percentage fluorescence polarisation inhibition, Mcl-1 FP): 72.8%
15 | COC(=O)c1oc(-c2sc3ncnc(NC(Cc4ccccc4OC)C(=O)O)c3c2-c2ccc(OCCN3CCN(C)CC3)c(Cl)c2C)cc1C [Example 66, N-((5Ra)-5-{3-chloro-2-methyl-4-[2-(4-methylpiperazin-1-yl)ethoxy]phenyl}-6-[5-(methoxycarbonyl)-4-methylfuran-2-yl]thieno[2,3-d]pyrimidin-4-yl)-2-methoxy-D-phenylalanine] | – | – | 36.9 | > 3.75 | –
16 | Cc1c(-c2c(-c3ccsc3)sc3ncnc(NC(Cc4ccccc4CN)C(=O)O)c23)ccc(OCCN2CCOCC2)c1Cl [Example 38, 2-(aminomethyl)-N-[(5Sa)-5-{3-chloro-2-methyl-4-[2-(morpholin-4-yl)ethoxy]phenyl}-6-(thiophen-3-yl)thieno[2,3-d]pyrimidin-4-yl]-D-phenylalanine] | 1.87 | > 3.75 | – | – | –
17 | Cc1c(-c2c(-c3ccc(F)o3)sc3ncnc(NC(Cc4ccccc4OCc4ccnn4C)C(=O)O)c23)ccc(OCCN2CCN(C)CC2)c1Cl [Example 20, N-[(5Sa)-5-{3-chloro-2-methyl-4-[2-(4-methylpiperazin-1-yl)ethoxy]phenyl}-6-(5-fluorofuran-2-yl)thieno[2,3-d]pyrimidin-4-yl]-2-[(1-methyl-1H-pyrazol-5-yl)methoxy]-D-phenylalanine] | 0.026 | 0.0786 | – | – | –
18 | Cc1c(-c2c(-c3ccsc3)sc3ncnc(NC(Cc4ccccn4)C(=O)O)c23)ccc(OCCN2CCOCC2)c1Cl [Example 35, N-[(5Ra)-5-{3-chloro-2-methyl-4-[2-(morpholin-4-yl)ethoxy]phenyl}-6-(thiophen-3-yl)thieno[2,3-d]pyrimidin-4-yl]-3-pyridin-2-yl-D-alanine] | – | – | 24.78 | > 30 | –
19 | COc1ccccc1-c1nccc(COc2ccccc2CC(Nc2ncnc3sc(-c4ccc(F)o4)c(-c4ccc(OCCN5CCN(C)CC5)c(Cl)c4C)c23)C(=O)O)n1 [Example 27, N-[(5Sa)-5-{3-chloro-2-methyl-4-[2-(4-methylpiperazin-1-yl)ethoxy]phenyl}-6-(5-fluorofuran-2-yl)thieno[2,3-d]pyrimidin-4-yl]-2-{[2-(2-methoxyphenyl)pyrimidin-4-yl]methoxy}-D-phenylalanine] | 0.011 | 0.00209 | – | – | –
20 | Cc1c(-c2c(-c3ccsc3)sc3ncnc(NC(Cc4ccccc4CN)C(=O)O)c23)ccc(OCCN2CCOCC2)c1Cl [Example 37, 2-(aminomethyl)-N-[(5Ra)-5-{3-chloro-2-methyl-4-[2-(morpholin-4-yl)ethoxy]phenyl}-6-(thiophen-3-yl)thieno[2,3-d]pyrimidin-4-yl]-D-phenylalanine] | – | – | 18.7 | > 3.75 | –
